The text below walks through data of US4495195A, “Xanthine oxidase inhibiting 3(5)-phenyl-substituted-5(3)-pyrazole-carboxylic acid derivatives, compositions, and methods of use” (Eli Lilly and Company, priority 1982, dated 1985).

Read-outs that look alike come from different tables or passages of the source.

The target of data set [1] is T1, xanthine oxidase (Bos taurus, UniProt P80457).
T1 construct: purchased Sigma Chemical Company, St. Louis, Missouri
Kind of data set: in vitro xanthine oxidase assay (rate of uric acid formation from xanthine). Type of data set: biochemical. As for the experimental part: Xanthine oxidase activity was measured at room temperature by the rate of uric acid formation from xanthine substrate. In a total volume of 1 ml., the incubation mixture contained 50 micromoles of potassium phosphate buffer at pH 7.4, 0.05 micromoles of xanthine and 0.01 units of enzyme preparation (chromatographically purified milk xanthine oxidase, grade III, obtained from Sigma Chemical Company, St. Louis, Missouri). The absorbence change at 292 nm was recored by a Gilford recording spectrophotometer and the uric acid formed was calculated using an extinction coefficient of 12 mM^-1 cm^-1 at 292 nm.

A further data set is described as follows: oral LD50 in mice. Conditions: mouse, in vivo; for selectivity ratio: LD50 oral mice / ED50 oral rats; for LD50: oral, mice, with standard error, read-out: LD50 (dose which kills one-half of the animals). The source says: The compounds represented by the above formula are also relatively non-toxic. In column 3 of Table IV are listed the oral LD50 for mice in mg. per kg. (with standard error) for each of the compounds of column 1 (dose which kills one-half of the animals). Finally, column 4 in Table IV gives the ratio of LD50 to ED50. It will be seen that the ratio of the LD50 to the ED50 is quite high, giving a substantial margin of safety for using the compounds of formulas Ia, Ib, and Ic in treating gout in mammals, particularly humans.

In data set [2] the test system is plasma level of uric acid. Kind of data set: in vivo lowering of plasma uric acid, oral, rats. Conditions: Rattus norvegicus, read-out: ED50 (dose which reduces plasma level of uric acid by one-half). How it is done:
(§1) Compounds corresponding to formulas Ia, Ib and Ic above are active in vivo in lowering plasma uric acid levels. […] The first method, the spectrofluorometric method, was modified from the precedure of Sumi et al., Clinica. Chimica. Acta., 73, 233 (1976). Rats were sacrificed by decapitation and their blood collected into vacutainer tubes containing heparin via heparinized glass funnels. The blood was centrifuged for 8 minutes at 4000 rpm after which time the plasma was separated and diluted 1:1 with water. Plasma protein was precipitated by addition of acetic acid to a final concentration of 0.007 molar and boiling the resulting mixture for 5 minutes in Sorval tubes. Clear deprotein plasma was obtained after centrifugation of the resulting plasma for 30 minutes at 25,000 rpm. Uric acid was assayed as follows: 0.2 ml. aliquots of the clear deproteinized plasma were mixed with 120 λ of uricase (0.045 mu/ml.) and incubated for 30 minutes at 27° C. 1.0 ml. of a p-hydroxyphenylacetic acid buffer was added. Samples obtained from feeding rats or dogs serial doses of the compound under test were incubated with the above buffer solution for 30 minutes at 27° C. Fluoroescence of the solution was measured in quartz tubes using an Aminco Bowman-Spectrofluorimeter having excitation of 321 nm and emission at 412 nm. Five uric acid standards from 6-30 micromolar were assayed for each test and each standard yielded a linear curve.
The second method is called the HPLC-EC Detection method. In this procedure, blood plasma was collected from rats as described above and from dogs in heparinized syringes from the cefalic vein in the forearm. The blood plasma was centrifuged with Sure-Sep to separate plasma. Deproteinized plasma was prepared in each instance by first diluting one volume of plasma with one volume of an internal standard solution, 4 mcg./ml., and then addition of two volumes of 5% trichloroacetic acid. Standards were added to control plasma in the range of 0-8 mcg./ml. of uric acid. Samples obtained by feeding graded doses of the drug under test to dogs or rats were mixed for 30 seconds and then centrifuged in an Eppendorf microcentrifuge. Supernates were diluted 1:10 in column buffer and assayed for uric acid. Internal standards used were 3-methyluric acid for the rat samples and 3,9-dimethyluric acid for dog samples. Assays were performed as follows using a Bioanlaytic Systems Inc. LC-44 analyser and an electrochemical detector system based on an Altex model 110 pump coupled with a CP-O carbon paste electrodetector. […] Uric acid levels were then calculated from peak areas by computer analysis. […]

Data set [3] has as its system xanthine oxidase. Kind of data set: oral administration in rats, in vivo inhibition of xanthine oxidase (Table V). Set-up: species or system rat. How it is done:
as §1, with “Samples obtained from feeding rats or dogs serial doses of the compound under test were incubated with the above buffer solution for 30 minutes at 27° C.” left out, “Five uric acid standards from 6-30 micromolar were assayed for each test and each standard yielded a linear curve.” left out
The second method is called the HPLC-EC Detection method. […] Uric acid levels were then calculated from peak areas by computer analysis. […]

Where [4] appears, read: milk xanthine oxidase, 0.05 micromoles xanthine in 1 ml, pH 7.4, room temperature, read-out: I50 (concentration of drug which inhibits 50% of the oxidation of xanthine to uric acid) (converted).

T1 sequence (P80457 whole entry): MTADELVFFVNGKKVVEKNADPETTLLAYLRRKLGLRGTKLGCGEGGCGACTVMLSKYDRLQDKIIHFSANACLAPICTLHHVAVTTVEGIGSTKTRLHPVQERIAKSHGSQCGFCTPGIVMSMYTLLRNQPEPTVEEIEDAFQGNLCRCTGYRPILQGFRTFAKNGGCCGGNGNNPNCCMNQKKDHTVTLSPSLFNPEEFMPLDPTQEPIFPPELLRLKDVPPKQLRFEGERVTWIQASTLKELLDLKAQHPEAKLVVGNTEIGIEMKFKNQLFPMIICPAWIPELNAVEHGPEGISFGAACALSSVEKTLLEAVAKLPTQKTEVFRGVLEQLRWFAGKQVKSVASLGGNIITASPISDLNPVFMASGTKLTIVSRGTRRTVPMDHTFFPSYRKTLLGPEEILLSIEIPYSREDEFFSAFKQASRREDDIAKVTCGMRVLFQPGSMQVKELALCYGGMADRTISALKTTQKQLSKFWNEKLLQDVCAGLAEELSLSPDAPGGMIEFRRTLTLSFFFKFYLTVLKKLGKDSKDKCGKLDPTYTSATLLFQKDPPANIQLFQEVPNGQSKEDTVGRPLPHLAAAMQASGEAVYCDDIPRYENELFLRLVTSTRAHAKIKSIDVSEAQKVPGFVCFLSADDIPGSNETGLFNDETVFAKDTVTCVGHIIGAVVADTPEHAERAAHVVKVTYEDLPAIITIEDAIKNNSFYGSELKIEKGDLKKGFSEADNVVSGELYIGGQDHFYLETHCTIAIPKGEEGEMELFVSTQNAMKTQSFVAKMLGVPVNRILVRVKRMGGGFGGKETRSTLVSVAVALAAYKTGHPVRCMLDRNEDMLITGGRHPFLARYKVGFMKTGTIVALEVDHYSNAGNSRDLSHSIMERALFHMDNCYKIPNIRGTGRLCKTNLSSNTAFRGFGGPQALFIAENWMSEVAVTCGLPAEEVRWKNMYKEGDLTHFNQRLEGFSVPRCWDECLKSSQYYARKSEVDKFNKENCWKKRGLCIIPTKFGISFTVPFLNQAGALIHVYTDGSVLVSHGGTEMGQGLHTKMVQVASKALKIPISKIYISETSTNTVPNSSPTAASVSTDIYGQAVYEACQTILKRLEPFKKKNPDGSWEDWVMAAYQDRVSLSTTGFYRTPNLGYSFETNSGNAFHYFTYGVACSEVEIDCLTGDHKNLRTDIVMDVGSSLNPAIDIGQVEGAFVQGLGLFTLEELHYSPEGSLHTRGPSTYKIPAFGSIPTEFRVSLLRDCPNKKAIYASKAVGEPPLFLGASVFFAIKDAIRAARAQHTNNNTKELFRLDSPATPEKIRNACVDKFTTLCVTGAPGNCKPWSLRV

Take `Cn1nc(-c2cccc(Br)c2)cc1C(=O)O` [R=3-Br, R^1=H, 1-Methyl-3-(3-bromophenyl)pyrazole-5-carboxylic acid]: the IC50 at xanthine oxidase [1] (setting [4]) was 71.1 nM.

As to `Cn1nc(-c2cccc(C(F)(F)F)c2)cc1C(=O)O` [R=3-CF3, R^1=H, 1-methyl-3-(3-trifluoromethylphenyl)pyrazole-5-carboxylic acid], in “oral LD50 in mice”, the selectivity ratio stood at 19.5 and the median lethal dose (LD50) (as a rule, the dose at which mortality reaches 50%) stood at 585 ± 45 mg/kg. Moreover, the ED50 (in general, the dose at which the effect has come halfway, by size or by number of responders) in data set [2] worked out at 30 mg/kg. The IC50 on xanthine oxidase [1] (setting [4]) was 25.9 nM.

For the molecule `O=C(O)c1cc(-c2cccc(C(F)(F)F)c2)n[nH]1` [R=3-CF3, X=H, 3(5)-(3-trifluoromethylphenyl)pyrazole-5(3)-carboxylic acid], the IC50 on xanthine oxidase [1] (setting [4]) was 390 nM.

Consider `O=C(O)c1[nH]nc(-c2cccc(C(F)(F)F)c2)c1O` [R=3-CF3, X=OH, 3(5)-(3-Trifluoromethylphenyl)-4-hydroxypyrazole-5(3)-carboxylic acid], for which the IC50 on xanthine oxidase [1] (setting [4]) is 44.8 nM.

Turning to `Cc1cccc(-c2cc(C(=O)O)n(C)n2)c1` [R=3-CH3, R^1=H, 1-Methyl-3-(m-tolyl)pyrazole-5-carboxylic acid], the IC50 on xanthine oxidase [1] (setting [4]) was 1390 nM.

In the case of `Cn1nc(-c2ccc(Cl)c(Cl)c2)cc1C(=O)O` [R=3-Cl, R^1=4-Cl, 1-Methyl-3-(3,4-dichlorophenyl)pyrazole-5-carboxylic acid], the IC50 on xanthine oxidase [1] (setting [4]) is 177 nM.

For the molecule `Cn1nc(-c2cccc(Cl)c2)cc1C(=O)O` [R=3-Cl, R^1=H, 1-Methyl-3-(3-chlorophenyl)pyrazole-5-carboxylic acid], the IC50 at xanthine oxidase [1] (setting [4]) is 304 nM.

In the case of `COc1ccc(-c2cc(C(=O)O)n(C)n2)cc1OC` [R=3-OCH3, R^1=4-OCH3, 1-Methyl-3-(3,4-dimethyoxyphenyl)pyrazole-5-carboxylic acid], the IC50 on xanthine oxidase [1] (setting [4]) was 244 nM.

For the molecule `Cn1nc(-c2ccc(Br)cc2)cc1C(=O)O` [R=4-Br, R^1=H, 1-methyl-3-(4-bromophenyl)pyrazole-5-carboxylic acid], the IC50 at xanthine oxidase [1] (setting [4]) is 416 nM.

On to `Cn1nc(-c2ccc(C(F)(F)F)cc2)cc1C(=O)O` [R=4-CF3, R^1=H, 1-methyl-3-(4-trifluoromethylphenyl)pyrazole-5-carboxylic acid], for which the IC50 at xanthine oxidase [1] (setting [4]) is 426 nM.

For the molecule `Cn1nc(-c2ccc(Cl)cc2)cc1C(=O)O` [R=4-Cl, R^1=H, 1-Methyl-3-(4-chlorophenyl)pyrazole-5-carboxylic acid], at xanthine oxidase [1] (setting [4]), the IC50 is 1690 nM.

In the case of `O=C(O)c1[nH]nc(-c2ccc(F)cc2)c1O` [R=4-F, X=OH], the IC50 on xanthine oxidase [1] (setting [4]) was 1580 nM.

Consider `COc1ccc(-c2cc(C(=O)O)n(C)n2)cc1` [R=4-OCH3, R^1=H, 1-Methyl-3-(4-methoxyphenyl)pyrazole-5-carboxylic acid], for which, on xanthine oxidase [1] (setting [4]), the IC50 was 310 nM.

Turning to `COc1ccc(-c2n[nH]c(C(=O)O)c2O)cc1` [R=4-OMe, X=OH], the IC50 at xanthine oxidase [1] (setting [4]) was 726 nM.

Regarding `Cn1nc(-c2cccc(Br)c2)c(Cl)c1C(=O)O` [R=Br, X=Cl, 1-Methyl-3-(3-bromophenyl)-4-chloropyrazole-5-carboxylic acid], the IC50 at xanthine oxidase [1] (setting [4]) was 66.5 nM.

`Cn1nc(-c2cccc(C(F)(F)F)c2)c(Br)c1C(=O)O` [R=CF3, X=Br, 1-methyl-3-(3-trifluoromethylphenyl)-4-bromopyrazole-5-carboxylic acid]: in the data set “oral LD50 in mice”, the selectivity ratio lay in the range of 27 to 45 and the LD50 lay within 300 to 500 mg/kg. In data set [2], the ED50 stood at 11 mg/kg. Also, the IC50 on xanthine oxidase [1] (setting [4]) is 57.3 nM.

For the molecule `Cn1nc(-c2cccc(C(F)(F)F)c2)c(Cl)c1C(=O)O` [R=CF3, X=Cl, 1-Methyl-3-(3-trifluoromethylphenyl)-4-chloropyrazole-5-carboxylic acid], in “oral LD50 in mice”, the selectivity ratio was found to be 38 and the LD50 worked out at 322 ± 38 mg/kg. The ED50 in data set [2] amounted to 8.5 mg/kg. Besides, the IC50 at xanthine oxidase [1] was 46 nM.

Regarding `Cn1nc(-c2cccc(C(F)(F)F)c2)c(N)c1C(=O)O` [R=CF3, X=NH2, 1-Methyl-3-(3-trifluoromethylphenyl)-4-aminopyrazole-5-carboxylic acid], in data set [2], the ED50 amounted to 23 mg/kg. Also, on xanthine oxidase [1] (setting [4]), the IC50 was 30.2 nM.

For `Cn1nc(-c2cccc(C(F)(F)F)c2)c(O)c1C(=O)O` [R=CF3, X=OH, 1-methyl-3-(3-trifluoromethylphenyl)-4-hydroxypyrazole-5-carboxylic acid], the IC50 at xanthine oxidase [1] (setting [4]) was 28 nM.

Turning to `Cn1nc(-c2cccc(C(F)(F)F)c2)cc1C(N)=O` [R=NH2], the “Oral Percent Inhibition” value in the data set on xanthine oxidase [3] (dosage 90 mg·kg) is reported as 23.5%.

Regarding `COC(=O)c1cc(-c2cccc(C(F)(F)F)c2)nn1C` [R=OCH3, methyl 1-methyl-3-(3-trifluoromethylphenyl)pyrazole-5-carboxylate], the “Oral Percent Inhibition” value in the data set on xanthine oxidase [3] (dosage 24 mg·kg) was 50%.
